From patent publication US20010055590A1, “Method for enhancing myoblast migration and invasion in the context of gene therapy” (priority 1999, published 2001) come the findings set out here.

One experiment deals with MMP-2. The experiment can be described thus: Gelatin zymography of human myoblasts, MMP-2. It is filed as cell-based. Here is the method: (§1) Gelatin zymography for assaying MMPs was carried out as previously described (Guerin and Holland “Synthesis and secretion of matrix-degrading metalloproteinases by human skeletal muscle satellite cells” Devel. Dynamics 202:91-99,1995) with minor modifications. Briefly, myoblasts were grown in 6 cm tissue culture plates to approximately 70% confluence, then rinsed three times with serumfree DMEM and incubated for 3 hours in DMEM containing 0.2% BSA to eliminate the effects of serum. Growth factors were added and cells were incubated for 24 hours. Culture medium was then collected, centrifuged to pellet detached cells, and concentrated ten-to twenty-fold using the Centricon-10 (Amicon, Beverly, Mass.) system. The protein concentration of the supernatants was determined using the Bio-Rad protein microassay system with BSA used as the standard. Samples were stored at −70° C. until use. For gelatin zymography, aliquots (10 μg as the total protein per sample) were electrophoresed at constant voltage on a 10% polyacrylamide gel containing 2 mg/ml gelatin. […] Proteinase activity was quantified by densitometric scanning of bands using a Bio-Rad Gel Doc 1000 video camera imaging system (Bio Rad, Hercules, Calif.). […]

The test system of a further experiment is MMP-1. The experiment can be described thus: Gelatin zymography of mouse myoblast culture medium, MMP-1. It is filed as cell-based. Conditions: mouse myoblasts. On the procedure:
as §1

Take human serum fibronectin: the MMP-2 activation entry in the experiment on MMP-2 is listed as “significant increase in MMP-2 activation”. In the experiment with MMP-1, the “MMP-1 expression (57 kDa)” value was “does not significantly affect”.
